In BindingDB's records for doi:10.1021/jm00076a003 (Eisai, 1994):

These molecules were tested against cGMP-specific 3',5'-cyclic phosphodiesterase (PDE5A) (Sus scrofa) (assay: Inhibitory activity against cyclic GMP-phosphodiesterase (PDE V) isolated from porcine aorta.).
For `COc1cc(CNc2ncnc3c(OC)c(OC)c(OC)cc23)cc(OC)c1OC` [(3,4,5-Trimethoxy-benzyl)-(6,7,8-trimethoxy-quinazolin-4-yl)-amine], the IC50 was 8.9 µM.
`CCCc1c(OCCCOc2ccc3c(=O)cc(C(=O)O)oc3c2CCC)ccc(C(C)=O)c1O` [7-[3-(4-Acetyl-3-hydroxy-2-propyl-phenoxy)-propoxy]-4-oxo-8-propyl-4H-chromene-2-carboxylic acid] was tested, and the IC50 was 1.5 µM.
Work on `COc1cc2c(NCc3ccc4c(c3)OCCO4)ncnc2c(OC)c1OC` [(2,3-Dihydro-benzo[1,4]dioxin-6-ylmethyl)-(6,7,8-trimethoxy-quinazolin-4-yl)-amine] yielded an IC50 of 0.78 µM.
With `COc1cc2c(NCc3ccco3)ncnc2c(OC)c1OC` [Furan-2-ylmethyl-(6,7,8-trimethoxy-quinazolin-4-yl)-amine] the IC50 was 4 µM.
In the case of `COc1cc2c(NCc3cccc([N+](=O)[O-])c3)ncnc2c(OC)c1OC` [(3-Nitro-benzyl)-(6,7,8-trimethoxy-quinazolin-4-yl)-amine], the IC50 is reported as 3.5 µM.
For `CCCc1c(OCc2ccc3c(c2)OCO3)ccc2c(=O)cc(C(=O)O)oc12` [7-(Benzo[1,3]dioxol-5-ylmethoxy)-4-oxo-8-propyl-4H-chromene-2-carboxylic acid], the IC50 was 0.65 µM.
With `COc1cc2c(NCc3ccc(Cl)cc3)ncnc2c(OC)c1OC` [(4-Chloro-benzyl)-(6,7,8-trimethoxy-quinazolin-4-yl)-amine] the IC50 was 1.3 µM.
Work on `COc1cc2c(NCc3cccc(Cl)c3)ncnc2c(OC)c1OC` [(3-Chloro-benzyl)-(6,7,8-trimethoxy-quinazolin-4-yl)-amine] yielded an IC50 of 1.3 µM.
`COc1cc2c(NCc3ccc([N+](=O)[O-])cc3)ncnc2c(OC)c1OC` [(4-Nitro-benzyl)-(6,7,8-trimethoxy-quinazolin-4-yl)-amine] was tested, and the IC50 was over 100 µM.
`COc1cccc(CNc2ncnc3c(OC)c(OC)c(OC)cc23)c1` [(3-Methoxy-benzyl)-(6,7,8-trimethoxy-quinazolin-4-yl)-amine] showed an IC50 of 1.7 µM.
`COc1cc2c(NCCCCCO)ncnc2c(OC)c1OC` [5-(6,7,8-Trimethoxy-quinazolin-4-ylamino)-pentan-1-ol] gave an IC50 of 5.5 µM.
Work on `COc1ccc(CNc2ncnc3c(OC)c(OC)c(OC)cc23)cc1` [(4-Methoxy-benzyl)-(6,7,8-trimethoxy-quinazolin-4-yl)-amine] yielded an IC50 of 1 µM.
Molecule `COc1cc2c(NCc3ccc4c(c3)CCC4)ncnc2c(OC)c1OC` [Indan-5-ylmethyl-(6,7,8-trimethoxy-quinazolin-4-yl)-amine] has an IC50 of 1.9 µM.
Work on `COc1cc2c(=O)n(CCc3ccc4c(c3)OCO4)cnc2c(OC)c1OC` [3-(2-Benzo[1,3]dioxol-5-yl-ethyl)-6,7,8-trimethoxy-3H-quinazolin-4-one] yielded an IC50 of 32 µM.
`COc1cc2c(NCc3ccccc3)ncnc2c(OC)c1OC` [Benzyl-(6,7,8-trimethoxy-quinazolin-4-yl)-amine] was tested, and the IC50 was 2 µM.
`COc1cc(OC)c(CNc2ncnc3c(OC)c(OC)c(OC)cc23)c(OC)c1` [(2,4,6-Trimethoxy-benzyl)-(6,7,8-trimethoxy-quinazolin-4-yl)-amine] was tested, and the IC50 was over 100 µM.
